# In US20230033195A1, “METHODS AND COMPOSITIONS FOR IMPROVING COGNITIVE FUNCTION” (THE JOHNS HOPKINS UNIVERSITY, priority 2011, published 2023):
# Assays:
# [1] = system: aged-impaired (AI) rats; experiment: eight-arm Radial Arm Maze (RAM) task with one-hour delay, spatial memory retention; format: in vivo, rat; conditions: for average no. of errors ± SEM: one-hour delay, vehicle 2.00 ± 0.42
# Method: FIG. 3 depicts the effects of administering levetiracetam on the spatial memory retention of ten aged-impaired rats (AI) in an eight-arm Radial Arm Maze (RAM) test. Six treatment conditions were employed: vehicle control, levetiracetam (1.25 mg/kg), levetiracetam (2.5 mg/kg), levetiracetam (5 mg/kg), levetiracetam (10 mg/kg) and levetiracetam (20 mg/kg). In the RAM task used, there was a one-hour delay between presentation of a subset of arms (5 arms available and 3 arms blocked) and completion of the eight-arm win-shift task (eight arms available). Rats were pre-treated 30 - 40 minutes before daily trials with a one-time drug/control treatment. The number of errors made by the rats after the delay was used as a measure of spatial memory retention. Errors were defined as instances when rats entered an arm from which food had already been retrieved in the pre-delay component of the trial or when rats re-visited an arm in the post-delay session that had already been visited. Paired t-tests were used to compare the number of errors between different doses of levetiracetam and vehicle control.
# The effects of levetiracetam on the spatial memory retention of aged-impaired (AI) rats were assessed in a Radial Arm Maze (RAM) behavioral task using vehicle control and five different dosage levels of levetiracetam (1.25 mg/kg/day, 2.5 mg/kg/day, 5 mg/kg/day, 10 mg/kg/day and 20 mg/kg/day). RAM behavioral tasks were preformed on ten AI rats. All six treatment conditions were tested on all ten rats, as described above for the MWM test.
# The RAM apparatus used consisted of eight equidistantly-spaced arms. An elevated maze arm (7 cm width x 75 cm length) projected from each facet of an octagonal center platform (30 cm diameter, 51.5 cm height). Clear side walls on the arms were 10 cm high and were angled at 65° to form a trough. A food well (4 cm diameter, 2 cm deep) was located at the distal end of each arm. Froot Loops™ (Kellogg Company) were used as rewards. Blocks constructed of Plexiglas™ (30 cm height x 12 cm width) could be positioned to prevent entry to any arm. Numerous extra maze cues surrounding the apparatus were also provided.
# The AI rats were initially subjected to a pre-training test (Chappell et al. Neuropharmacology 37: 481-487, 1998). The pre-training test consisted of a habituation phase (4 days), a training phase on the standard win-shift task (18 days) and another training phase (14 days) in which a brief delay was imposed between presentation of a subset of arms designated by the experimenter (e.g., 5 arms available and 3 arms blocked) and completion of the eight-arm win-shift task (i.e., with all eight arms available).
# In the habituation phase, rats were familiarized to the maze for an 8-minute session on four consecutive days. In each of these sessions food rewards were scattered on the RAM, initially on the center platform and arms and then progressively confined to the arms. After this habituation phase, a standard training protocol was used, in which a food pellet was located at the end of each arm. Rats received one trial each day for 18 days. Each daily trial terminated when all eight food pellets had been obtained or when either 16 choices were made or 15 minutes had elapsed. After completion of this training phase, a second training phase was carried out in which the memory demand was increased by imposing a brief delay during the trial. At the beginning of each trial, three arms of the eight-arm maze were blocked. Rats were allowed to obtain food on the five arms to which access was permitted during this initial 'information phase' of the trial. Rats were then removed from the maze for 60 seconds, during which time the barriers on the maze were removed, thus allowing access to all eight arms. Rats were then placed back onto the center platform and allowed to obtain the remaining food rewards during this 'retention test' phase of the trial. The identity and configuration of the blocked arms varied across trials. […]
# [2] = system: entorhinal cortex (EC) of aMCI subjects; experiment: fMRI activity during lure stimuli correctly identified as similar, entorhinal cortex; format: in vivo, human; conditions: 125 mg twice a day for two weeks
# Method: FIG. 9B depicts the average activity in the left entorhinal cortex of the same aMCI subjects with placebo treatment or levetiracetam treatment (125 mg twice a day for two weeks) during the presentation of lure stimuli that the subject correctly identified as "similar."
# A within-subjects trial of 8 weeks duration, involving 17 amnestic MCI (aMCI) subjects and 17 age-matched controls with a low dose treatment of levetiracetam is conducted. During the course of the study, each aMCI subject receives both drug and placebo treatments separately in two periods of two weeks each, with the order of treatments among different aMCI subjects counterbalanced (see FIG. 7). Age-matched control subjects treated with placebo serve as a further control. Cognitive testing and fMRI imaging data are obtained from the subjects after each two week period of drug/placebo treatment.
# Imaging data are obtained through high-resolution methods developed in the Stark laboratory. Data are collected on a Phillips 3 Tesla scanner (Eindhoven, The Netherlands) equipped with an 8-channel SENSE (Sensitivity Encoding) head coil, located at the F.M. Kirby Research Center for Functional Brain Imaging at the Kennedy Krieger Institute (Baltimore, MD). […]
# Group data are analyzed using a two-way Analysis of Variance (ANOVA) with trial types and group as fixed factors, and subject as a random factor nested within group. […]
structure (smiles),measurement,setting,value
"CC[C@@H](C(N)=O)N1CCCC1=O [levetiracetam, (2S)-2-(2-oxopyrrolidin-1-yl) butanamide]",average no. of errors ± SEM,[1]; 5 mg/kg/day i.p.,0.75 ± 0.32
same,memory performance relative to vehicle control,"[1]; 5 mg/kg/day, t(9) = 2.18, p = 0.057",significantly improved memory performance
same,average no. of errors ± SEM,[1]; 10 mg/kg/day i.p.,0.80 ± 0.27
same,memory performance relative to vehicle control,"[1]; 10 mg/kg/day, t(9) = 2.37, p = 0.042",significantly improved memory performance
same,performance of AI rats in the radial maze task,[1]; levetiracetam 20 mg/kg,fails to improve the performace
same,"effective in reducing the number of errors, on its own",[1]; levetiracetam i.p. 1.25 mg/kg,not
same,"effective in reducing the number of errors, on its own",[1]; levetiracetam i.p. 2.5 mg/kg,not
same,"effective in reducing the number of errors, on its own",[1]; levetiracetam i.p. 5-10 mg/kg,effective
same,EC activity compared with placebo-treated control subjects,[2],statistically indistinguishable
same,"EC activity during memory judgments, vs placebo treatment",[2],increases EC activity
